Assay results as given in patent US12570639B2, “Tetrahydroquinoline derivative and medicinal use thereof” (Toray Industries, Inc., priority 2020, dated 2026).

Tests used:
[1] = tested on: Human fibrosarcoma cells (HT-1080 cells); experiment: In vitro inhibitory action against ferroptosis (Erastin-induced cell death, Cell Counting Kit-8); format: cell-based; details: Erastin 3 μmol/L, 24 hours
[2] = In vitro radical scavenging action (DPPH method); details: 30 minutes at room temperature, maximum concentration 100 μmol/L
[3] = tested on: MOG-induced experimental autoimmune encephalomyelitis mouse model; experiment: Activity assessment 5 in MOG-induced experimental autoimmune encephalomyelitis mouse model; format: in vivo, C57BL/6J mice; details: 10 mg/kg orally twice daily for 15 days starting 52 days after MOG35-55 inoculation; vs vehicle-dosing group (2.13)
Procedure: (§1) A PBS solution prepared to contain a synthetic partial peptide of MOG (MOG35-55; CSBio) at a concentration of 4 mg/mL was mixed with an equal volume of Freund's complete adjuvant, and a total of 0.1 mL (0.05 mL per flank) of the resulting MOG35-55 dosing solution was inoculated intradermally into the bilateral flanks of C57BL/6J mice (male, 10 weeks old, Charles River Laboratories Japan, Inc.). On the day of inoculation of the MOG35-55 dosing solution and on the second day after the inoculation, 200 μL of pertussis toxin (Sigma Co. LLC) prepared at a concentration of 1 μg/mL was further administered intraperitoneally to the mice.
(§2) The compound of Example 11, the compound of Example 32, and the compound of Example 36 were used as test compounds to assess the effect of the test compounds on increase of neurological score in the MOG-induced experimental autoimmune encephalomyelitis mouse model. […] In addition, the score was determined by the following criteria: 0, normal; 0.5, partial drooping tail; 1, full drooping tail or hind-limb weakness; 2, full drooping tail and hind-limb weakness; 3, hind-limb partial paralysis; 4, hind-limb complete paralysis; 5, fore- and hind-limb complete paralysis. […]

[4] = tested on: MOG-induced experimental autoimmune encephalomyelitis mouse model; experiment: Activity assessment 6 in MOG-induced experimental autoimmune encephalomyelitis mouse model; format: in vivo, C57BL/6J mice; details: 10 mg/kg orally twice daily for 12 days starting 52 days after MOG35-55 inoculation; vs vehicle-dosing group (2.13)
Procedure: as §1, §2

[5] = evaluation concentration 10 μmol/L

| EC50 [2] [µM] | SMILES | Ferroptosis inhibition rate (%) ([1]; evaluation concentration 30 μmol/L) | neurological score reduction rate [3] [%] | Ferroptosis inhibition rate (%) [1, 5] [%] | neurological score reduction rate [4] [%] |
| --- | --- | --- | --- | --- | --- |
| > 100 | NS(=O)(=O)c1ccc(C2CCc3ccccc3N2)cc1 (stereo not drawn) [Example 33, 4-(1,2,3,4-tetrahydroquinolin-2-yl)benzenesulfonamide] | 84.88 | 38.2 |  |  |
| > 100 | NS(=O)(=O)c1ccc(C2CCc3cc(F)ccc3N2)cc1 (stereo not drawn) [Example 108, 4-(6-fluoro-1,2,3,4-tetrahydroquinolin-2-yl)benzenesulfonamide] |  |  | 83.78 | 29.4 |
| > 100 | NS(=O)(=O)c1ccc(C2CCc3cc(Cl)ccc3N2)cc1 (stereo not drawn) [Example 117, 4-(6-chloro-1,2,3,4-tetrahydroquinolin-2-yl)benzenesulfonamide] |  |  | 76.27 | 32.4 |
